Data as given in patent US10363314B2, “Sprayable topical carrier and composition comprising phosphatidylcholine” (LIPIDOR AB, priority 2013, dated 2019).

System: human skin
Experiment: Erythema occurrence upon treating skin with carriers under occlusion for 12 days, first study
Assay type: in vivo
Conditions: 33 healthy volunteers, occlusive conditions, applied 5 days per week, scored after 12 days, index 0-4
Experimental: The effect of prior art pharmaceutical compositions and of carriers and compositions of the invention on human skin was observed by visual inspection or by determining erythema index by using DermaLab Combo and DSM II Colormeter (Cortex Technology, Denmark).
Erythema occurrence was assessed in two human studies. In the first study the skin irritation potential of different lipid carriers was evaluated. Thirty-three healthy volunteers received the test formulations and a positive and negative control under occlusive conditions. The test articles were applied 5 days per week and the irritation grade was scored after 12 days according to a four-level assessment index (0=No reaction; 1=Slight diffuse, partial erythema; 2=Clear, sharply demarcated erythema; 3=Severe erythema with induration; 4=Severe erythema with induration and/or epidermal defect).

CCCCCCCCCCCCOS(=O)(=O)[O-].[Na+] [Pos. control, Sodium dodecylsulfate]
Mean erythema assessment index: 3.0
